Measured values from paper PMC4363128 (Neuroscience, 2013).

Key:
[1] = biological target: T1, Y1 receptor (Mus musculus, UniProt Q04573); assay type: biochemical
T1 sequence (Q04573 1-382): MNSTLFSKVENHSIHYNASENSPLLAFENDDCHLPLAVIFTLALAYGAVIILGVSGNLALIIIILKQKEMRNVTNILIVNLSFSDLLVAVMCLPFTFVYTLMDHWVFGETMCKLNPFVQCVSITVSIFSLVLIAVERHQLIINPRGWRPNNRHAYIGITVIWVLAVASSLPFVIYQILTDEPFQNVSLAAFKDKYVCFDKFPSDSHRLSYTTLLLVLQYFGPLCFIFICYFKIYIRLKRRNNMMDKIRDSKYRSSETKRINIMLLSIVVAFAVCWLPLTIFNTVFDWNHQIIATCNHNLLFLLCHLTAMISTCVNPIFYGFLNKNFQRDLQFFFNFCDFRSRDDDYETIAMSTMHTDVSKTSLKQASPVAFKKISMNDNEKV

[2] = system: Y1 receptors; NK1R internalization in lamina I neurons; assay: NK1R internalization evoked by dorsal root stimulation in spinal cord slices; assay type: cell-based, rat; details: BIBO3304 100 nM with 100 nM [Leu^31,Pro^34]NPY
[3] = system: NK1R internalization in dorsal horn lamina I neurons; assay: NK1R internalization evoked by non-noxious stimulus; assay type: in vivo, rat; details: intrathecal NPY, carrageenan-inflamed paw; printed 'by nearly 50%'
[4] = system: NK1R internalization in dorsal horn lamina I neurons; assay type: in vivo, rat; details: intrathecal NPY one hour before hind paw clamp

Row | Compound | IC50 [1] | effect on inhibition of NK1R internalization produced by Y1 agonist [2] | inhibition of brush-evoked NK1R internalization [3] | inhibition of evoked NK1R internalization [4]
1 | NC(=O)NCc1ccc(CNC(=O)[C@@H](CCCN=C(N)N)NC(=O)C(c2ccccc2)c2ccccc2)cc1 [BIBO3304] | 7.85 nM | completely reversed |  | 
2 | Neuropeptide Y [NPY] |  |  | ~50% | 50%
